The text below walks through data of doi:10.1101/2021.04.29.441652v1 (biorxiv, 2021).

In this assay the target is human σ2 receptor (TMEM97) (Homo sapiens, UniProt Q5BJF2). The experiment in a line: biochemical. It is filed as Expi293 membranes. To be noted: read-out: % of control remaining.
Chain of human σ2 receptor (TMEM97) (Q5BJF2 whole entry): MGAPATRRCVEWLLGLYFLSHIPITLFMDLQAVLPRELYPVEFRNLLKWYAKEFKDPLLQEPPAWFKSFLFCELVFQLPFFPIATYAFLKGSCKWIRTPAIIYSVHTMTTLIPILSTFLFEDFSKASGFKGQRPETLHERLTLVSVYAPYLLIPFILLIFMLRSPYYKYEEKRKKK
Regarding `CCc1ocnc1C(=O)NC[C@H]1CN(C[C@@H](C)CC)CCO1` [ZINC001035320653], the remaining activity at 1 µM is 119%. For `C[C@@H](O)CN1CC[C@H](C2CCN(C(=O)CN3CCOCC3)CC2)C1` [ZINC001039123057], the remaining activity at 1 µM was determined as 115%.

As for `COc1ccnc(CN2CCC3(CC2)CCN(C(=O)C(C)C)C3)c1` [ZINC001040612984], the remaining activity at 1 µM was found to be 100%. With `COCCC(=O)N1CC[C@@](O)(CNC(=O)[C@@H]2CCN(C)C2=O)C1` [ZINC001040614201], the remaining activity at 1 µM came out at 117%.

Turning to `O=C(NCC1(O)CN(C(=O)CCn2ccnc2)C1)[C@H]1CC=CCC1` [ZINC001041431730], the remaining activity at 1 µM was 98.6%. With `O=C([C@@H]1CCCN(CC(F)F)C1)N1CC[C@]2(CCN(CCO)C2)C1` [ZINC001041605786] the figure was 110%; with `CN1CC[C@@H](C(=O)N2CC[C@@]3(CCN(Cc4nnn(C)n4)C3)C2)C1` [ZINC001041828396], 103%. On to `CN1CCC[C@H]1C(=O)NCC1(O)CN(C(=O)CCc2ncccn2)C1` [ZINC001042098162], for which the remaining activity at 1 µM is 102%. Regarding `Cn1nc(C(=O)N2CC(O)(CNC(=O)C3=CCOCC3)C2)ccc1=O` [ZINC001042722400], the remaining activity at 1 µM was 125%. For `CNC(=O)NCC(=O)N1CC(O)(CNC(=O)c2ccc(F)s2)C1` [ZINC001043696212], the remaining activity at 1 µM is 84.5%. For `CN1CCCC[C@@H]1C(=O)NCC1(O)CN(C(=O)CCc2cn[nH]c2)C1` [ZINC001043772717], the remaining activity at 1 µM was 116%. As for `CN(C)c1ccc(C(=O)N2CC(O)(CNC(=O)c3cnn[nH]3)C2)nc1` [ZINC001043817104], the remaining activity at 1 µM worked out at 88.5%.

Turning to `CCC[C@@H]1C[C@H]1C(=O)NCC1(O)CN(C(=O)C2CN(C(C)=O)C2)C1` [ZINC001046261579], the remaining activity at 1 µM worked out at 114%. On to `Cc1nc[nH]c1C(=O)N1CC(O)(CNC(=O)CN2CC[C@H](C)C2)C1` [ZINC001046685471], for which the remaining activity at 1 µM was 101%. With `C[C@H](C(=O)NCC1(O)CN(C(=O)Cn2ncnn2)C1)C1CCCC1` [ZINC001046914841], the remaining activity at 1 µM came out at 104%. The value for `NC(=O)[C@@H]1CCC[C@@H](C(=O)NCC2(O)CN(C(=O)C3CCC3)C2)C1` [ZINC001046939982] was 110%; that for `CC(C)n1cc(C(=O)N2CC(O)(CNC(=O)c3ccnnc3)C2)nn1` [ZINC001047126822] was 107%; that for `Cc1ccc(CN2C[C@@H]3CN(C(=O)c4cccn4C)C[C@@H]3C2)cc1C` [ZINC001048683995] was 61.7%. With `Cc1ncc(CNC[C@@H]2CN(C(=O)c3cn(C)cn3)CCO2)cn1` [ZINC001051553588], the remaining activity at 1 µM was 105%.

On to `O=C(Cn1cnnn1)N[C@H]1CCN(c2ncnc3c2CCC3)C[C@H]1O` [ZINC001051633080], for which the remaining activity at 1 µM turned out to be 132%. With `CCN1CC[C@H](N2CCC[C@@H](NC(=O)c3ccc(O)nn3)CC2)C1=O` [ZINC001052175095] the figure was 104%; with `COCCn1cc(C(=O)N2C[C@@H](C)[C@@H](NCc3ccccn3)C2)nn1` [ZINC001054647418], 104%; with `Cc1cnc(C(=O)N2C[C@H]3CN(C(=O)CN(C)C(C)C)C[C@H]3C2)cn1` [ZINC001055138151], 103%. For the molecule `CC(=O)NCCN1CCC(NC(=O)c2c(Cl)n[nH]c2C)CC1` [ZINC001055479120], the remaining activity at 1 µM amounted to 98.5%. The value for `O=C(N[C@H]1CCN(c2cc(Cl)c(O)nn2)C1)c1c[nH]c(=O)cn1` [ZINC001058532763] was 95.3%. For the molecule `Cn1nnc2c(N3C[C@H]4CC[C@@H](C3)N4C(=O)c3cc[nH]n3)ncnc21` [ZINC001058732454], the remaining activity at 1 µM turned out to be 93.6%. On to `O=C(NCC[C@@H]1CCN(C(=O)c2ccncn2)C1)c1c[nH]c(=O)cn1` [ZINC001060201073], for which the remaining activity at 1 µM stood at 76%. `CN1CCC[C@@H]1C(=O)NC[C@H]1CCCN1c1ncnc2scnc12` [ZINC001061317651]: the remaining activity at 1 µM came out at 62.6%.

Turning to `CN1CCC(C(=O)NC[C@@H]2CCN(c3ncc(Cl)cn3)C2)CC1` [ZINC001061620290], the remaining activity at 1 µM was determined as 91.3%. In the case of `CN(C)C(=O)c1cncc(N[C@H]2CC[C@H](NC(=O)C(N)=O)CC2)n1` [ZINC001063398490], the remaining activity at 1 µM is 146%. With `Cn1cc(C(=O)N2CCO[C@@H](CNC(=O)C=C3CCC3)C2)ncc1=O` [ZINC001065434920] the figure was 57.8%; with `O=C(c1cccnn1)N1CCC(O)(CNc2cncc(Cl)n2)CC1` [ZINC001067478391], 104%; with `C[C@@H]1CN(C(=O)Cc2cncnc2)C[C@H]1NC(=O)CCn1cccn1` [ZINC001071984909], 89.9%. The value for `CNC(=O)[C@@H](C)N1CCC2(CN(C(=O)c3c[nH]c4nccc-4c3)C2)C1` [ZINC001072835483] was 81.8%. As to `CCc1cc(C(=O)NC[C@H]2CN(CCn3cncn3)CCCO2)no1` [ZINC001073859800], the remaining activity at 1 µM is 110%. For the molecule `CN1CC[C@@H](C(=O)NC[C@H]2CN(Cc3csnn3)CCCO2)C1` [ZINC001073886256], the remaining activity at 1 µM was 113%. In the case of `O=C(C[C@H]1C=CCC1)NCC1(O)CCN(C(=O)c2cncnc2)CC1` [ZINC001074556982], the remaining activity at 1 µM came out at 89.6%. For the molecule `NC(=O)C(=O)N1CCC(O)(CNC(=O)[C@H]2CCCCC2(F)F)CC1` [ZINC001074702922], the remaining activity at 1 µM turned out to be 109%. Turning to `Cc1c(F)cccc1C(=O)N[C@@H]1CN(CCC2CCCCC2)C[C@H]1O` [ZINC001077034834], the remaining activity at 1 µM stood at 16.5%.

For the molecule `C[C@@H](CCNC(=O)C1(CN(C)C)CC1)NC(=O)c1ncccc1O` [ZINC001078073018], the remaining activity at 1 µM was 111%.

`CC[C@@H]1[C@@H](NC(=O)Cc2ccc(C)cc2)CCN1C[C@@H]1CCOC1` [ZINC001087646081]: the remaining activity at 1 µM came out at 99.4%. Take `Cc1ccoc1CC(=O)N1C[C@H]2CCN(CC(=O)N(C)C)C[C@H]2C1` [ZINC001088099598]: the remaining activity at 1 µM was 132%.

As for `Cc1ccc(CN2[C@@H]3CC[C@H]2[C@@H](NC(=O)c2cn(C)cn2)C3)c(C)c1` [ZINC001095312060], the remaining activity at 1 µM worked out at 69.4%.

In the case of `C[C@H](C(=O)N[C@H]1C[C@H]2CC[C@@H]1N2CCn1cccn1)c1ccccc1F` [ZINC001096194954], the remaining activity at 1 µM was 118%. As to `O=C(N[C@@H]1CCN(CCC2CCCC2)C[C@@H]1O)C1(C(F)F)CCC1` [ZINC001099969021], the remaining activity at 1 µM is 28.5%. For the molecule `Cc1cc(C)nc(NC[C@@H](O)CNC(=O)[C@@H]2CCc3c[nH]nc3C2)n1` [ZINC001105862991], the remaining activity at 1 µM was 76.1%. With `C[C@H](C(=O)N[C@H]1C[C@H]2CC[C@@H]1N2CCOCC1CC1)c1cccs1` [ZINC001109713565] the figure was 28.7%. With `O=C1CN(CC(=O)N[C@H](CNc2cc(F)ncn2)C2CC2)CCN1` [ZINC001109958062] the figure was 90.2%.

With `CN(C)S(=O)(=O)CCC(=O)N[C@H]1[C@@H]2CN(Cc3ccon3)C[C@@H]21` [ZINC001115282185], the remaining activity at 1 µM amounted to 109%. `CO[C@@H](CNC(=O)C(=O)N1C[C@@H]2C(=O)N(C)C(=O)[C@@H]2C1)CC(C)C` [ZINC001119173847]: the remaining activity at 1 µM stood at 95.8%. With `O=C(NCCN1CCNC1=O)C(=O)NC[C@H]1CCc2ccccc21` [ZINC001119470858] the figure was 107%; with `CN(C[C@@H](O)CN(C)c1ncc(F)cn1)C(=O)CCc1cnn[nH]1` [ZINC001125309519], 88%. In the case of `CN1CCC[C@@H]1C(=O)NC[C@H]1CN(CCCC(C)(C)C)CCCO1` [ZINC001149399826], the remaining activity at 1 µM worked out at 96.4%. Regarding `C(=C\c1ccccc1)/CNc1ccc2c(n1)CCC2` [ZINC001156463732], the remaining activity at 1 µM was found to be 32.6%. With `Cc1cc(C)cc(C2=CCN(CCC(=O)N3CCc4ccccc43)CC2)c1` [ZINC001168222793] the figure was 13.7%; with `C[C@@H](C(=O)NCc1ccc(Cl)cc1)N1CCC(C(C)(C)C)CC1` [ZINC001169307444], 21.2%. On to `CCOCCNC(=O)CN1C[C@@H](O)[C@H](NC(=O)[C@@]23COC[C@@H]2C3)C1` [ZINC001193095852], for which the remaining activity at 1 µM turned out to be 112%. Regarding `COc1ccc2c(c1)C[C@H](CN1CCCC[C@H]1CCC(=O)OC(C)(C)C)O2` [ZINC001195393353], the remaining activity at 1 µM stood at 54.5%.

As for `CCc1ccc(F)cc1C(=O)N1CCCN(CCOC(C)C)CC1` [ZINC001196417557], the remaining activity at 1 µM turned out to be 71.9%. With `Cc1cc(C(=O)N2CCCO[C@@H](CNCC(=O)NC3CC3)C2)n(C)n1` [ZINC001199969207], the remaining activity at 1 µM was determined as 124%. For `CN(C)S(=O)(=O)N(C)CC(=O)N[C@@H]1C[C@H](NCCO)C12CCC2` [ZINC001202928172], the remaining activity at 1 µM was found to be 117%. With `C[C@@H]1CN([C@H]2CCc3ccccc3NC2=O)C[C@H]1NC(=O)/C=C\C(C)(C)C` [ZINC001206651458] the figure was 109%; with `CCNS(=O)(=O)CCNC(=O)C(=O)N[C@@H](C)C1=CCN(C)CC1` [ZINC001261177261], 70.9%. In the case of `CN1C(=O)[C@H]2CN(C(=O)C(=O)NC3CCC(F)(F)CC3)C[C@H]2C1=O` [ZINC001261948364], the remaining activity at 1 µM worked out at 90.8%. With `CC[C@H]1CCN(CC(=O)Nc2cc(Cl)ccc2C#N)[C@H]1C` [ZINC001307701283] the figure was 62.5%. For `FC(F)(F)c1ccnc([C@H]2CCN(CCCc3ccc4c(c3)CCO4)C2)n1` [ZINC001308961074], the remaining activity at 1 µM was 2.4%.

As to `OC1(CN2CC(Cc3ccccc3C(F)(F)F)C2)CCC1` [ZINC001320149247], the remaining activity at 1 µM was 14.7%.

Consider `COC(=O)N1CCC[C@H](NC(=O)C(=O)N2CC[C@@](O)(C3CC3)C2)C1` [ZINC001323717111], for which the remaining activity at 1 µM is 95%. With `COC(=O)[C@@H]1C[C@H](O)CN(C(=O)C(=O)N[C@H](C)C2CCOCC2)C1` [ZINC001326422624], the remaining activity at 1 µM turned out to be 99.2%.
